Laboratory results published in US11111219B2, “Polysubstituted pyrimidines inhibiting the formation of prostaglandin E2, a method of production thereof and use thereof” (USTAV ORGANICKE CHEMIE A BIOCHEMIE AV CR, V.V.I., priority 2017, dated 2021).
“And” between values parts separate entries of the source, which are not always exact repeats. Equal entries are not always repeated.

Assays:
Type in all cases: cell-based
[1] = tested on: biosynthesis of PGE2; experiment: Production of PGE2 in LPS-stimulated mouse peritoneal cells; conditions: for activity at 50 µM: Mus musculus, 5 h, compound 50 μmol·l^−1, with LPS 10 ng/ml, 5 hours, LPS alone = 100%, low values = strong inhibition, read-out: PGE2 remaining activity in % of LPS response (mean ± SEM); for IC50: concentration-effect experiments, 0.0004 to 25 μmol·l^−1, mouse peritoneal cells, LPS, read-out: PGE2 IC50, and 95% limits of confidence (in parentheses)
Method: Production of PGE2 was assayed in vitro in cultures of mouse peritoneal cells. The cells (2×10^6/mL) were stimulated with bacterial lipopolysaccharide (LPS, 10 ng/ml). Tested pyrimidine derivatives were applied at the concentration of 50 μmol.l^−1, concomitantly with LPS. Amount of PGE2 in cell supernatants was determined 5 hours after stimulation using the commercially available kit (R&D Systems). The effects of pyrimidines on PGE2 production were evaluated in percent of control values, i.e. those found after the action of LPS alone (100%). The data in Table 2 show the remaining activity; the low values thus indicate strong inhibition of PGE2 formation.
The concentrations required to inhibit PGE2 biosynthesis by 50% (so-called IC50) were determined by the analysis of concentration-effect experiments. For this purpose, the compounds were applied within the range of 0.0004 μmol.l^−1 až 25 μmol.l^−1.

[2] = tested on: mouse peritoneal cells; experiment: Cell viability, lactate dehydrogenase (LDH) assay; conditions: compound 50 μmol·l^−1, 5 hours
Method: Cell viability was determined using the lactate dehydrogenase assay (LDH kit, Sigma-Aldrich). The mouse peritoneal cells were cultured for 5 hours in the presence of tested compounds applied at the concentration of 50 μmol.l^−1. The effects of pyrimidines were compared with the viability of cells cultured in the absence of the compounds. The later was taken as a control 100% viability.

[3] = tested on: production of nitric oxide (NO); experiment: Production of nitric oxide (NO) in LPS/IFN-γ-stimulated murine peritoneal cells (Griess reagent); conditions: Mus musculus; compound 50 μmol·l^−1, LPS 0.1 ng/ml + IFN-γ 5 ng/ml, nitrites at 24 h; LPS/IFN-γ alone = 100%; read-out: Production of NO in % of controls
Method: Similar to the PGE2 assay, the production of nitric oxide (NO) was followed under conditions in vitro using murine peritoneal cells (FIG. 1). The cells (2×10^6/ml) were cultured in presence of lipopolysaccharide (LPS, 0.1 ng/ml) and recombinant mouse interferon-γ (IFN-γ, 5 ng/ml). Effects of tested pyrimidine derivatives were screened at the concentration of 50 μmol.l^−1. The compounds were added concomitantly with LPS/IFN-γ. The concentration of nitrites in cell supernatants (a measure of NO production) was evaluated spectrophotometrically, 24 h after the priming stimuli. Griess reagent was used for this purpose. The effects of pyrimidines on NO production were evaluated in percent of control values, i.e those found after the action of LPS/IFN-γ alone (100%).

| IC50 [1] [nM] | SMILES | activity at 50 µM [1] [%] | Cell viability in % of untreated controls (LDH assay) [2] | Inhibition of PGE2 production (in words) ([1]; compound 50 μmol·l^−1) | activity at 50 µM [3] [%] |
| --- | --- | --- | --- | --- | --- |
|  | CCCCc1c(-c2ccccc2)nc(N)nc1-c1ccc(OCC)cc1 [Compound 1a, 5-butyl-4-(4-ethoxyphenyl)-6-phenylpyrimidin-2-amine] | 26.3 ± 0.1 | 104.6 ± 1.3 (n = 8) % |  |  |
|  | CCCCc1c(-c2ccccc2)nc(N)nc1-c1ccc(OC(C)C)cc1 [Compound 1b, 5-butyl-4-(4-isopropoxyphenyl)-6-phenylpyrimidin-2-amine] | 12.3 ± 0.5 | 71.2 ± 1.9 (n = 8) % |  |  |
|  | Nc1nc(-c2ccccc2)cc(-c2ccc(OCc3ccccc3)cc2)n1 [Compound 1d, 4-(4-(benzyloxy)phenyl)-6-phenylpyrimidin-2-amine] | 0.7 ± 0.8 | 101.2 ± 0.7 (n = 4) % |  |  |
| 94 | CCCCc1c(-c2ccccc2)nc(N)nc1-c1ccc(OCc2ccccc2)cc1 [Compound 1e, 4-(4-(benzyloxy)phenyl)-5-butyl-6-phenylpyrimidin-2-amine] |  |  |  |  |
|  | CCCCc1c(-c2ccccc2)nc(N)nc1-c1ccc(OCc2cccc3ccccc23)cc1 [Compound 1f, 5-butyl-4-(4-(naphthalen-1-ylmethoxy)phenyl)-6-phenylpyrimidin-2-amine] | 26.3 ± 5.3 | 104.8 ± 0.4 (n = 8) % |  |  |
|  | COc1ccc(COc2ccc(-c3cc(-c4ccccc4)nc(N)n3)cc2)cc1 [Compound 1g] | 8.4 ± 3 | 99.6 ± 3.0 (n = 4) % |  |  |
| 5400 | CCCCc1c(-c2ccccc2)nc(N)nc1-c1ccc(OCc2ccc(OC)cc2)cc1 [Compound 1h, 5-butyl-4-(4-((4-methoxybenzyl)oxy)phenyl)-6-phenylpyrimidin-2-amine] | 2 ± 1.5 | 104.2 ± 0.3 (n = 8) % |  |  |
|  | Nc1nc(-c2ccccc2)cc(-c2ccc(OCc3ccc(Cl)cc3)cc2)n1 [Compound 1i, 4-(4-((4-chlorobenzyl)oxy)phenyl)-6-phenylpyrimidin-2-amine] |  | 102.2 ± 4.1 (n = 4) % |  |  |
| 77 | CCCCc1c(-c2ccccc2)nc(N)nc1-c1ccc(OCc2ccc(Cl)cc2)cc1 [Compound 1j, 5-butyl-4-(4-((4-chlorobenzyl)oxy)phenyl)-6-phenylpyrimidin-2-amine] | 0.7 ± 0.5 | 101.2 ± 0.8 (n = 8) % |  |  |
|  | CCCCc1c(-c2ccccc2)nc(N)nc1-c1ccc(OCc2ccccc2)cc1C [Compound 1k, 4-(4-(benzyloxy)-2-methylphenyl)-5-butyl-6-phenylpyrimidin-2-amine] | 51.1 ± 0.8 | 103.2 ± 0.5 (n = 8) % |  |  |
|  | Nc1nc(-c2ccccc2)cc(-c2ccc(OCc3ccccc3)c(F)c2F)n1 [Compound 1l, 4-(4-(benzyloxy)-2,3-difluorophenyl)-6-phenylpyrimidin-2-amine] | 5.5 ± 0.3 | 102.6 ± 3.7 (n = 4) % |  |  |
| 6 | CCCCc1c(-c2ccccc2)nc(N)nc1-c1ccc(OCc2ccccc2)c(F)c1F [Compound 1m, 4-(4-(benzyloxy)-2,3-difluorophenyl)-5-butyl-6-phenylpyrimidin-2-amine] | 0.03 ± 0.2 | 103.7 ± 0.4 (n = 8) % | completely inhibits | 84 |
|  | CCCCc1c(-c2ccccc2)nc(N)nc1-c1cc(C)c(OCc2ccccc2Cl)c(C)c1 [Compound 1n, 5-butyl-4-(4-((2-chlorobenzyl)oxy)-3,5-dimethylphenyl)-6-phenylpyrimidin-2-amine] | 7.1 ± 1.9 | 103.6 ± 0.3 (n = 8) % |  |  |
|  | CCCCc1c(-c2ccccc2)nc(N)nc1-c1cc(C)c(OCc2cccc(Cl)c2)c(C)c1 [Compound 1o, 5-butyl-4-(4-((3-chlorobenzyl)oxy)-3,5-dimethylphenyl)-6-phenylpyrimidin-2-amine] | 6.5 ± 0.4 | 102.8 ± 0.4 (n = 8) % |  |  |
|  | CCCCc1c(-c2ccc(OCc3ccccc3)cc2)nc(N)nc1-c1cccc(OC)c1 [Compound 2a, 4-(4-(benzyloxy)phenyl)-5-butyl-6-(3-methoxyphenyl)pyrimidin-2-amine] | 10 ± 2 | 43.1% and 43.1 ± 8.4 (n = 4) % |  |  |
|  | CCCCc1c(-c2ccc(OC)cc2)nc(N)nc1-c1ccc(OCc2ccccc2)cc1 [Compound 2b, 4-(4-(benzyloxy)phenyl)-5-butyl-6-(4-methoxyphenyl)pyrimidin-2-amin] | 10.5 ± 0.1 | 100.3 ± 1.2 (n = 4) % |  |  |
|  | CCCCc1c(-c2ccc(OCc3ccccc3)cc2)nc(N)nc1-c1cccc(Cl)c1 [Compound 2c, 4-(4-(benzyloxy)phenyl)-5-butyl-6-(3-chlorophenyl)pyrimidin-2-amine] | 12.6 ± 1.7 | 101.3 ± 2.0 (n = 4) % |  |  |
|  | CCCCc1c(-c2ccc(Cl)cc2)nc(N)nc1-c1ccc(OCc2ccccc2)cc1 [Compound 2d, 4-(4-(benzyloxy)phenyl)-5-butyl-6-(4-chlorophenyl)pyrimidin-2-amine] | 4.1 ± 0.7 | 96.7 ± 2.2 (n = 4) % |  |  |
